Data from patent US20230102554A1 (GB002, INC., priority 2019, published 2023).

Experiments:
[1] = biological target: T1, Human PDGFRβ, cytoplasmic domain (GST-PDGFRβ) (Homo sapiens, UniProt P09619); assay: Human PDGFRβ biochemical inhibition assay (off-chip Mobility Shift Assay)
T1 construct: made in house
In short: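 GST-tagged cytoplasmic domain (aa 557-1106) from baculovirus was incubated 1 h at room temperature with compound, CSKtide, ATP at Km and Mg²⁺ in HEPES buffer, pH 7.5. Phosphorylated and unphosphorylated peptide were separated by off-chip mobility shift, and the product ratio P/(P+S) gave percent inhibition.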

[2] = biological target: T2, Human PDGFRα, cytoplasmic domain (GST-PDGFRα) (Homo sapiens, UniProt P16234); assay: Human PDGFRα biochemical inhibition assay (off-chip Mobility Shift Assay)
T2 construct: made in house
T2 sequence (P16234 550-1089 T674I): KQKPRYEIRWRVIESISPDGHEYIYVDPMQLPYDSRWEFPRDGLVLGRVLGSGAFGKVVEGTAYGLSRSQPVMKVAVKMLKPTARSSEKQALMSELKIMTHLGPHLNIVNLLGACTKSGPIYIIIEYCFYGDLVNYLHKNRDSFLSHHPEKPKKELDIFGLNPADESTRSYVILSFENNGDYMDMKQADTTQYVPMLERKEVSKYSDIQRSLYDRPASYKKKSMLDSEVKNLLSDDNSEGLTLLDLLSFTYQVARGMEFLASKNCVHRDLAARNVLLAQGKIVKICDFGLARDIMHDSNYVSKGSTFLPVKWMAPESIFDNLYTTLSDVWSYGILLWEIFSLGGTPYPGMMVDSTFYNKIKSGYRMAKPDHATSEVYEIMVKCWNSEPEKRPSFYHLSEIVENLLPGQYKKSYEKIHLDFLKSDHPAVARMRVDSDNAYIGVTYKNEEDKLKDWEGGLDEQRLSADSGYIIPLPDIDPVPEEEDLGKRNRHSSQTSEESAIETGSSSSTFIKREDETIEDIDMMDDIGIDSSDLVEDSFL

T1 sequence (P09619 with tags, fused parts or gaps): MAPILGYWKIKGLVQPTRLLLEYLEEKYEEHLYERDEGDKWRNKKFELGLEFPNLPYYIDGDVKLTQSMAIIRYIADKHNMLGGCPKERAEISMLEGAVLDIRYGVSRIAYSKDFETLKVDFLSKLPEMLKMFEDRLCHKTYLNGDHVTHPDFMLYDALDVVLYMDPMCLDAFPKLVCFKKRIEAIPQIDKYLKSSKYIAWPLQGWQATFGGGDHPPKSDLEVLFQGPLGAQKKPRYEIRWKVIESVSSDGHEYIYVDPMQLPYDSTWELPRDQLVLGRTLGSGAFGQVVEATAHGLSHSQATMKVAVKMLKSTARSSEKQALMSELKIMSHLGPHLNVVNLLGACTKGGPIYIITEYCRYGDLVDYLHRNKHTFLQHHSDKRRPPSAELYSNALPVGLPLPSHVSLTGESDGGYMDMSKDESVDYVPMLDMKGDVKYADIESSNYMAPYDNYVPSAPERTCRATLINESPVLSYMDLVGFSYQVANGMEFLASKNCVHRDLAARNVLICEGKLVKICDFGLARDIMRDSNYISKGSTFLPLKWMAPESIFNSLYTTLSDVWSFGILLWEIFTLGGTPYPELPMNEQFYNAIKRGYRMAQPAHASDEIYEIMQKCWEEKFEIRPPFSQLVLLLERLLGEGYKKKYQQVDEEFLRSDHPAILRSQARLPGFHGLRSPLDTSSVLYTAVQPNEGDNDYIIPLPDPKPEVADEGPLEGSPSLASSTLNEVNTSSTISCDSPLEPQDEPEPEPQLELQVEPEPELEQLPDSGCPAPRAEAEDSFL

Row | IC50 [1] [nM] | IC50 [2] [nM] | SMILES
1 | < 300 | < 300 | CCn1cc2ncc(N[C@@H](C)c3cccc(NC(=O)c4ccc(CN5CC[C@H](O)C5)c(Cl)c4)c3)nc2n1 [Compound 494, 3-chloro-N-(3-((5)-1-((2-ethyl-2H-pyrazolo[3,4-b]pyrazin-6-yl)amino)ethyl)phenyl)-4-(((S)-3-hydroxypyrrolidin-1-yl)methyl) benzamide]
2 | ≥ 1000 | 300 to 1000 | Cc1cncc(C(=O)Nc2cccc([C@H](C)Nc3cnc4cn(CCN5CCOCC5)nc4n3)c2)c1 [Compound 278, (S)-5-methyl-N-(3-(1-((2-(2-morpholinoethyl)-2H-pyrazolo[3,4-b]pyrazin-6-yl)amino)ethyl)phenyl) nicotinamide]
3 | < 300 | < 300 | CC(C)c1ccc(C(=O)Nc2cccc([C@H](C)Nc3cnc4cnn(C)c4n3)c2)cn1 [Compound 204, (S)-6-isopropyl-N-(3-(1-((1-methyl-1H-pyrazolo[3,4-b]pyrazin-6-yl)amino)ethyl)phenyl)nicotinamide]
4 | < 300 | < 300 | Cc1n[nH]c2ncc(N[C@@H](C)c3cccc(NC(=O)c4cc(C(F)(F)F)n(C)n4)c3)nc12 [Compound 547, (S)-1-methyl-N-(3-(1-((3-methyl-1H-pyrazolo[3,4-b]pyrazin-5-yl)amino)ethyl)phenyl)-5-(trifluoromethyl)-1H-pyrazole-3-carboxamide]
5 | < 300 | < 300 | CCn1cc2ncc(N[C@@H](C)c3cccc(NC(=O)c4ccc(C(F)F)s4)c3)nc2n1 [Compound 292, (S)-5-(difluoromethyl)-N-(3-(1-((2-ethyl-2H-pyrazolo[3,4-b]pyrazin-6-yl)amino)ethyl)phenyl)thiophene-2-carboxamide]
6 | < 300 | < 300 | CCn1cc2ncc(N[C@@H](C)c3cc(NC(=O)c4ccc(CN5CCOCC5)c(C)c4)ccc3F)nc2n1 [Compound 446, (S)-N-(3-(1-((2-ethyl-2H-pyrazolo[3,4-b]pyrazin-6-yl)amino)ethyl)-4-fluorophenyl)-3-methyl-4-(morpholinomethyl) benzamide]
7 | < 300 | < 300 | C[C@H](Nc1cnc2cnn(C)c2n1)c1cccc(NC(=O)c2cncc(C3CC3)c2)c1 [Compound 105, (S)-5-cyclopropyl-N-(3-(1-((1-methyl-1H-pyrazolo[3,4-b]pyrazin-6-yl)amino)ethyl)phenyl)nicotinamide]
8 | < 300 | < 300 | C[C@H](Nc1cnc2cnn(C)c2n1)c1cccc(NC(=O)c2ccc(C(F)(F)F)s2)c1 [Compound 137, (S)-N-(3-(1-((1-methyl-1H-pyrazolo[3,4-b]pyrazin-6-yl)amino)ethyl)phenyl)-5-(trifluoromethyl)thiophene-2-carboxamide]
9 | ≥ 1000 | < 300 | C[C@H](Nc1cnc2cnn(C)c2n1)c1cccc(NC(=O)Cc2cnn(C)c2)c1 [Compound 629, (S)-2-(1-methyl-1H-pyrazol-4-yl)-N-(3-(1-((1-methyl-1H-pyrazolo[3,4-b]pyrazin-6-yl)amino)ethyl)phenyl)acetamide]
10 | < 300 | < 300 | CCn1cc(C(=O)Nc2cccc([C@H](C)Nc3cnc4[nH]cc(C)c4n3)c2)cn1 [Compound 574, (S)-1-ethyl-N-(3-(1-((7-methyl-5H-pyrrolo[2,3-b]pyrazin-2-yl)amino)ethyl)phenyl)-1H-pyrazole-4-carboxamide]
11 | < 300 | < 300 | CCn1cc2ncc(N[C@@H](C)c3cccc(NC(=O)Cc4cccc(Cl)c4)c3)nc2n1 [Compound 621, (S)-2-(3-chlorophenyl)-N-(3-(1-((2-ethyl-2H-pyrazolo[3,4-b]pyrazin-6-yl)amino)ethyl)phenyl)acetamide]
12 | 300 to 1000 | 300 to 1000 | C[C@H](Nc1cnc2[nH]cc(-c3cnn(C)c3)c2n1)c1cccc(NC(=O)c2cc(C(F)(F)F)nn2C)c1 [Compound 584, (S)-1-methyl-N-(3-(1-((7-(1-methyl-1H-pyrazol-4-yl)-5H-pyrrolo[2,3-b]pyrazin-2-yl)amino)ethyl)phenyl)-3-(trifluoromethyl)-1H-pyrazole-5-carboxamide]
13 | < 300 | < 300 | CCn1cc2ncc(N[C@@H](C)c3cc(NC(=O)c4ccc(OC5CCN(C)CC5)c(C(F)(F)F)c4)ccc3F)nc2n1 [Compound 431, (S)-N-(3-(1-((2-ethyl-2H-pyrazolo[3,4-b]pyrazin-6-yl)amino)ethyl)-4-fluorophenyl)-4-((1-methylpiperidin-4-yl)oxy)-3-(trifluoromethyl)benzamide]
14 | < 300 | < 300 | CCn1cc2ncc(N[C@@H](C)c3cc(NC(=O)c4ccc(C(F)(F)F)nc4)ccc3F)nc2n1 [Compound 10, (S)—N-(3-(1-((2-ethyl-2H-pyrazolo[3,4-b]pyrazin-6-yl)amino)ethyl)-4-fluorophenyl)-6-(trifluoromethyl)nicotinamide]
15 | < 300 | < 300 | Cc1cc(C(=O)Nc2cccc([C@H](C)Nc3cnc4cnn(C)c4n3)c2)cnc1Cl [Compound 200, (S)-6-chloro-5-methyl-N-(3-(1-((1-methyl-1H-pyrazolo[3,4-b]pyrazin-6-yl)amino)ethyl)phenyl)nicotinamide]
16 | < 300 | < 300 | CCn1cc2ncc(N[C@@H](C)c3cccc(NC(=O)c4cc(F)c(CN5CC6(COC6)C5)c(Cl)c4)c3)nc2n1 [Compound 490, (S)-4-((2-oxa-6-azaspiro[3.3]heptan-6-yl)methyl)-3-chloro-N-(3-(1-((2-ethyl-2H-pyrazolo[3,4-b]pyrazin-6-yl)amino)ethyl)phenyl)-5-fluorobenzamide]
17 | < 300 | < 300 | CCc1c[nH]c2ncc(N[C@@H](C)c3cccc(NC(=O)c4cncc(C)c4)c3)nc12 [Compound 564, (S)-N-(3-(1-((7-ethyl-5H-pyrrolo[2,3-b]pyrazin-2-yl)amino)ethyl)phenyl)-5-methylnicotinamide]
18 | < 300 | < 300 | Cc1cc2ncc(N[C@@H](C)c3cc(NC(=O)c4ccc(OC(F)F)nc4)ccc3F)nc2s1 [Compound 611, (S)-6-(difluoromethoxy)-N-(4-fluoro-3-(1-((6-methylthieno[2,3-b]pyrazin-3-yl)amino)ethyl)phenyl) nicotinamide]
19 | < 300 | < 300 | CC1OC(=O)c2ccc(C(=O)Nc3cccc([C@H](C)Nc4cnc5cnn(C)c5n4)c3)cc21 (stereo partly drawn) [Compound 76, 3-methyl-N-(3-((S)-1-((1-methyl-N-pyrazolo[3,4-b]pyrazin-6-yl)amino)ethyl)phenyl)-1-oxo-1,3-dihydroisobenzofuran-5-carboxamide]
20 | 300 to 1000 | < 300 | CCn1cc2ncc(N[C@@H](C)c3cccc(NC(=O)c4cnc(NC(C)C)c(C)c4)c3)nc2n1 [Compound 371, (S)-N-(3-(1-((2-ethyl-2H-pyrazolo[3,4-b]pyrazin-6-yl)amino)ethyl)phenyl)-6-(isopropylamino)-5-methylnicotinamide]
21 | < 300 | < 300 | COc1ccc2nc(N[C@@H](C)c3cccc(NC(=O)c4cncc(C)c4)c3)cnc2c1 [Compound 33, (S)-N-(3-(1-((6-methoxyquinoxalin-2-yl)amino)ethyl)phenyl)-5-methylnicotinamide]
22 | < 300 | < 300 | COc1ccc(C(=O)Nc2cccc([C@H](C)Nc3cnc4cnn(C)c4n3)c2)cc1C [Compound 210, (S)-4-methoxy-3-methyl-N-(3-(1-((1-methyl-1H-pyrazolo[3,4-b]pyrazin-6-yl)amino)ethyl)phenyl)benzamide]
23 | < 300 | < 300 | C[C@H](Nc1cnc2cnn(C)c2n1)c1cccc(NC(=O)c2cncc(C(F)(F)F)c2)c1 [Compound 102, (S)-N-(3-(1-((1-methyl-1H-pyrazolo[3,4-b]pyrazin-6-yl)amino)ethyl)phenyl)-5-(trifluoromethyl)nicotinamide]
24 | < 300 | < 300 | CC(=O)Oc1cccc(C(=O)Nc2cccc([C@H](C)Nc3cnc4cnn(C)c4n3)c2)c1 [Compound 215, (S)-3-((3-(1-((1-methyl-1H-pyrazolo[3,4-b]pyrazin-6-yl)amino)ethyl)phenyl)carbamoyl) phenyl acetate]
25 | < 300 | < 300 | CCn1cc2ncc(N[C@@H](C)c3cccc(NC(=O)c4cncc(C)c4)c3)cc2n1 [Compound 11, (S)—N-(3-(1-((2-ethyl-2H-pyrazolo[4,3-b]pyridin-6-yl)amino)ethyl)phenyl)-5-methylnicotinamide]
26 | < 300 | < 300 | Cc1c[nH]c2ncc(N[C@@H](C)c3cccc(NC(=O)c4cc(C(C)C)on4)c3)nc12 [Compound 554, (S)-5-isopropyl-N-(3-(1-((7-methyl-5H-pyrrolo[2,3-b]pyrazin-2-yl)amino)ethyl)phenyl)isoxazole-3-carboxamide]
27 | < 300 | < 300 | C[C@H](Nc1cnc2cnn(C)c2n1)c1cccc(NC(=O)c2ccc3c(c2)CCC(=O)O3)c1 [Compound 72, (S)-N-(3-(1-((1-methyl-1H-pyrazolo[3,4-b]pyrazin-6-yl)amino)ethyl)phenyl)-2-oxochromane-6-carboxamide]
28 | < 300 | < 300 | CCn1cc2ncc(N[C@@H](C)c3cc(NC(=O)Cc4ccc(F)cn4)ccc3C)nc2n1 [Compound 656, (S)-N-(3-(1-((2-ethyl-2H-pyrazolo[3,4-b]pyrazin-6-yl)amino)ethyl)-4-methylphenyl)-2-(5-fluoropyridin-2-yl) acetamide]
29 | < 300 | < 300 | Cc1cc(C(=O)Nc2cccc([C@H](C)Nc3cnc4cnn(C)c4n3)c2)cnc1CN1CCN(C)CC1 [Compound 243, (S)-5-methyl-N-(3-(1-((1-methyl-1H-pyrazolo[3,4-b]pyrazin-6-yl)amino)ethyl)phenyl)-6-((4-methylpiperazin-1-yl)methyl)nicotinamide]
